Patent US8962677B2, “Methods of restoring cognitive ability using non-peptidic compounds” (Acumen Pharmaceuticals, Inc., priority 2007, dated 2015)

How the values were obtained:
[1] = cited from earlier work
Aβ1-42 = Aβ1-42 (Homo sapiens, UniProt P05067); assay: FRET assay of Aβ1-42 oligomer (ADDL) assembly; format: biochemical; conditions: for IC50: FRET assay of Example 1, formation of neurotoxic ADDLs
Text: Fluorescence (or Förster) Resonance Energy Transfer (FRET) is a distance-dependent, non-radiative transfer of energy in which the de-excitation of one fluorophore (donor) is coupled to excitation of another fluorophore (acceptor). FRET occurs if (1) the quantum of energy emitted by a donor fluorophore corresponds to an acceptor fluorophore's excitation energy, (2) the orientations of donor and acceptor transition dipoles are nearly parallel and (3) the donor fluorescent emission spectrum overlaps the acceptor absorption spectrum.
In this assay, Aβ1-42 oligomer formation is monitored by FRET using N-terminal conjugates of fluorescein-Aβ1-42 as both the donor and acceptor fluorophore (fluorescein-fluorescein Ro˜45 Å). […] Inhibition of Aβ1-42 assembly is observed as the absence or attenuation of fluorescein quenching.
FRET and FP assays are performed in 384-well Corning Non-Binding Surface, black, opaque microtiter plates, and the assay buffer consists of 50 mM MOPS-Tris (pH 8.0) with 100 mM MgCl2. The assay volume, containing 0.2 μM FITC-Aβ(1-42) and 0.8 μM Aβ(1-42), is 50 μl and the temperature is 37° C. ADDL assembly is monitored on a Tecan GENios Pro plate reader, exciting at a wavelength of 485 nm and detecting emission at a wavelength of 515 nm. Kinetic traces are collected by recording fluorescence intensity and polarization readings every five minutes over about three to about a six-hour time course. […] Positive control reactions contain all buffer components in the absence of added small molecule or antibody reagents. To test for ADDL assembly inhibition, the non-peptidic compound was incubated with the peptide mixture at six concentrations from about 30 μM decreasing to about 0.05 μM.
Test Compound A appears as compound 7 in Table 1.

[2] = cited from earlier work; remark: listed apart in the source
Aβ1-42 ADDLs = target: T1, Aβ1-42 ADDLs (Homo sapiens, UniProt P05067); assay: Alternating Lever Cyclic Ratio (ALCR) rat model; format: in vivo; conditions: for Approach Errors Mean / Perseveration Errors Mean: base line error rate equalized to 1.00; for error rates versus baseline: given alone
T1 construct: Synthetic Aβ1-42 powder was dissolved in 1,1,1,3,3,3 hexafluorisopropanol (HFIP); host or cells: chemically synthesised peptide
Experimental: Preparations of Aβ1-42 ADDLs and a potential therapeutic compounds under the Alternating Lever Cyclic Ratio (ALCR) rat model of AD were tested. This highly sensitive model has been able to detect cognitive deficits due to direct injection of cell-derived Aβ oligomers into rat brain. In this study, a direct injection of ADDLs made from synthetic Aβ1-42 and a putative therapeutic compound under the ALCR procedure were tested.
The ALCR test has proven to be much more sensitive than previously published methods for measuring drug effects on cognitive function. In this task, rats must learn a complex sequence of lever-pressing requirements in order to earn food reinforcement in a two-lever experimental chamber. Subjects must alternate between two levers by switching to the other lever after pressing the first lever enough to get food reward. The exact number of presses required for each food reward changes, first increasing from 2 responses per food pellet up to 56 presses per food pellet, then decreasing back to 2 responses per pellet. Intermediate values were based on the quadratic function, x^2−x. One cycle was an entire ascending and descending sequence of these lever press requirements (e.g., 2, 6, 12, 20, 30, 42, 56, 56, 42, 30, 20, 12, 6, and 2 presses per food reward). Six such full cycles were presented during each daily session.
Synthetic Aβ1-42 powder was dissolved in 1,1,1,3,3,3 hexafluorisopropanol (HFIP) to afford a solution of Aβ1-42 in HFIP of about 1 mM and allowed to incubate at ambient temperature for about 1 h. The resulting solution was chilled on ice for about 5-10 min, then aliquoted into eppendorf tubes to provide about 50 μl of solution per tube. The tubes were then placed in a chemical fume hood and allowed to stand overnight to allow the HFIP to evaporate under a slow stream of nitrogen. To removed final traces of HFIP, the tubes were subjected to two SpeedVac cycles of 15 min at room temperature and about 15 to 25 in Hg of vacuum. The resulting films of monomerized Aβ1-42 peptide were stored over desiccant at −80° C. until used.
A tube of monomerized Aβ1-42 peptide was warmed to room temperature and the Aβ1-42 peptide was dissolved in anhydrous DMSO to afford a peptide stock DMSO solution containing about 10 μM to about 100 μM Aβ1-42 peptide in DMSO.
2 μl of a 20 mM stock solution of test compound in anhydrous DMSO is added to 998 μl of neural basal media (phenol red free, Gibco 12348-017) to give a compound neural basal media solution containing 40 μM of test compound in neural basal media.
For the Aβ1-42 peptide only treatment, peptide stock DMSO solution is added to 37° C. neural basal to obtain the requisite Aβ1-42 peptide monomer concentration, provided that the maximum concentration of DMSO is 1% or less, and the tube is vortexed for 30 to 60 seconds, spun down briefly in a microfuge and incubated at 37° C. for 15 min prior to the start of injections.
For the Aβ1-42 peptide plus test compound treatment, peptide stock DMSO solution is added to 37° C. compound neural basal media solution to obtain the requisite Aβ1-42 peptide monomer concentration, provided that the maximum concentration of DMSO is 1% or less, and the tube is vortexed for 30 to 36 seconds, spun down briefly in a microfuge and incubated at 37° C. for 15 min prior to the start of injections.
For control injections, compound neural basal media solution is incubated at 37° C. for 15 min prior to the start of injections.
Rats: Rats were trained under ALCR until their error rates were stable. Once the rats were placed upon the final ALCR procedure, training sessions were conducted 7 days each week until the end of the study.
Surgery: All rats received a single 28 ga cannula, which was permanently affixed to the skull, and aimed at the lateral ventricle. Half the rats received cannula in the right ventricle and half received cannula in the left ventricle. Rats were allowed 5 days to recover from surgery before training resumed. […]

[3] = compound combined with Aβ1-42 ADDLs
[4] = injectate alone, 20 μl via ventricular cannula, tested about 3 hours after injection

T1 sequence (P05067 672-713 limits assumed): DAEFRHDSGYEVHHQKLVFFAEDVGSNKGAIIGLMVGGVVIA
Sequence of Aβ1-42 (P05067 672-713 limits assumed): as above

NCCCS(=O)(=O)O [Alzhemed, 3-amino-1-propanesulfonic acid]
cognitive decline ([1]; 20 month open-label extension of Phase II trial, patients with mild AD): slowed cognitive decline in some patients
efficacy ([1]; blinded phase of the Phase II study): no efficacy was observed
blocking of Aβ1-42 monomer assembly into Aβ oligomers (Aβ1-42; standard FRET assay conditions of Example 1, FIG. 2): inability of the compound Alzhemed to inhibit Aβ1-42 monomer assembly into Aβ oligomers

Oc1c(I)cc(Cl)c2cccnc12 [Clioquinol]
patients' cognitive ability ([2]; compared to untreated patients): stabilize the patients' cognitive ability
Aβ1-42 levels in plasma ([2]; patients' plasma): lower Aβ1-42 levels

Cn1nccc1C(=O)C/C(=N/NC(=O)c1ccccc1O)C(F)(F)F [Compound 1, 2-Hydroxy-benzoic acid [3-oxo-3-(1-methyl-1H-pyrazol-5-yl)-1-trifluoromethyl-prop-(Z)-ylidene]-hydrazide]
IC50 (Aβ1-42): 17.7 µM

CCOC(=O)c1c(NC(=O)C(=O)N/N=C/c2ccccc2O)sc2c1CCC(C)C2 (centres unmarked) [Compound 7, 2-{[1-(2-Hydroxyphenyl)-meth-(E)-ylidene-hydrazinooxalyl]-amino}-6-methyl-4,5,6,7-tetrahydro-benzo[b]thiophene-3-carboxylic acid ethyl ester]
inhibition of Aβ1-42 oligomer assembly (Aβ1-42; 1 mM Aβ1-42 total monomer, 100 mM MgCl2, compound 0.05 to 3 mM (so in the source), FIG. 1): dose dependent inhibition of Aβ1-42 oligomer assembly

COc1ccc(NC(=O)C(=O)N2N=C(CCC(C)C)CC2(O)C(F)(F)F)cc1 (centres unmarked) [Compound 21, 2-(5-hydroxy-3-isopentyl-5-(trifluoromethyl)-4,5-dihydro-1H-pyrazol-1-yl)-N-(4-methoxyphenyl)-2-oxoacetamide]
IC50 (Aβ1-42): 6.4 µM

O=C(N/N=C/c1c(O)ccc2ccccc12)c1ccccc1O [Compound 24, (E)-2-hydroxy-N′-((2-hydroxynaphthalen-1-yl)methylene)benzohydrazide]
effect on ADDL-induced increase in Perseveration Errors (Aβ1-42 ADDLs; combined with the requisite concentration of Aβ1-42 ADDLs): eliminated the increase in Perseveration Errors
Approach Errors Mean (Aβ1-42 ADDLs; [3]): 1.00
Perseveration Errors Mean (Aβ1-42 ADDLs; [3]): 0.92
error rates versus baseline (Aβ1-42 ADDLs): did not increase error rates
Approach Errors Mean (Aβ1-42 ADDLs; [4]): 0.96
Perseveration Errors Mean (Aβ1-42 ADDLs; [4]): 0.95

Aβ1-42 ADDLs: ADDLs made from synthetic Aβ1-42; soluble, oligomeric, globular, non-fibrillar, neurotoxic Aβ1-42 peptides [reference compound]
error rates versus baseline (Aβ1-42 ADDLs): significantly increased Perseveration Error rate
Approach Errors Mean (Aβ1-42 ADDLs; [4]): 1.02
Perseveration Errors Mean (Aβ1-42 ADDLs; [4]): 1.33
